From US7951382B2, “Methods for treatment of type 2 diabetes” (American Type Culture Collection, priority 2006, dated 2011) come the findings set out here.

“Also recorded” adds a separate entry of the source.

The test system of data set [1] is STZ-induced diabetic C57BL/6 mice. Kind of data set: Multiple low dose streptozotocin (STZ)-induced murine model of Diabetes, efficacy of D3 peptide. The data set is classed as in vivo, male C57BL/6 mice. The following applies: for mortality / survival during the course of the study: experiment 1, to day 36, FIG. 15. On the procedure: Peptide treatment also delayed the onset of Diabetes (mean blood glucose levels≧300 mg/dL) by approximately 14 days, and reduced peak BG levels by 40% (p<0.01) in treated animals. This naturally occurring peptide may represent a safer alternative to small molecule kinase inhibitors for the control of IDDM and associated complications.
Streptozotocin (Streptozocin, STZ, Zanosar) is a naturally occurring glucosamine-nitrosourea compound that is toxic to insulin producing beta cells in the pancreas. This alkylating agent bears enough similarity to the molecular structure of glucose to be readily transported into beta cells by the highly abundant glucose GLU2 glucose transporter protein. Once inside the cell STZ causes damage to the DNA, resulting in a loss of cellular function.
Twenty five male C57BL/6 mice aged approximately 6 weeks were randomized into 3 groups of 10, 10 and 5 animals. Beginning on day −6, non-fasting blood glucose (BG) levels for all animals were determined twice weekly using an Ascencia Contour blood glucose reader (Beyer). […] Groups 1 and 3 were intraperitoneally administered 200 μl sterile water alone. Injections continued in a similar fashion every 3 days for the duration of the experiment. Beginning on day 0, Groups 2 and 3 also received 50 mg/kg of STZ in 200 μl of sterile water via the intraperitoneal route for 5 consecutive days. Group 1 animals received a mock intraperitoneal injection of 200 μl of sterile water during the same period (see Table 17). Animals were allowed access to food and water ad libitum and this treatment schedule was followed until day 36.
In experiment 1, animals were fed normal mouse chow for the duration of the experiment and a fresh vial of STZ was used. Blood glucose measurements for each individual animal were recorded twice weekly for the duration of the experiment. The blood glucose levels in the non diabetic control animals remained stable at approximately 150 mg/dl. However, immediately following the administration of STZ to the two experimental groups, blood glucose levels increased steadily over time and reached a maximum at approximately day 15. No difference in blood glucose levels were observed between D3 treated and untreated STZ-induced animals.
For the duration of the experiment, the mean blood glucose level of normal control animals was approximately 150 mg/dl. For the purposes of this study, a blood glucose reading in STZ-induced animals more than 2-fold higher than normal (i.e. ≧300 mg/dl) was considered to indicate a diabetic animal. Using this criterion, the incidence and time to onset of diabetes in the treated and untreated STZ groups was determined. […] For both STZ groups, the onset of Diabetes began as early as day 4 post STZ administration. All of the untreated STZ animals were classed as diabetic by day 10.
In experiment 2, animals were fed a high carbohydrate diet (˜50% sucrose) for the duration of the experiment. An older stock vial of STZ was used. Blood glucose measurements for each individual animal were recorded twice weekly for the duration of the experiment. As expected, the blood glucose levels in the non diabetic control animals remained below 150 mg/dl. […] This trend was maintained for the entire duration of the experiment.
For the duration of the experiment, the mean blood glucose level of normal control animals was approximately 150 mg/dl. For the purposes of this study, a blood glucose reading in STZ-induced animals more than 2-fold higher than normal (i.e. ≧300 mg/dl) was considered to indicate a diabetic animal. Using this criterion, the incidence and time to onset of Diabetes in the treated and untreated STZ groups was determined. […] For the untreated STZ group, Diabetes onset began as early as day 8 post STZ administration, and 100% of animals were diabetic by day 18. […] By day 36 only 70% of animals in the D3 treated group were classified as diabetic. […]

For data set [2], the system named is 12 Kinases (kinases involved in insulin receptor signaling pathways). Kind of data set: NovaScreen ProfilerPro kinase panel / screen of 59 receptors and enzymes at 1 μM. The data set is classed as biochemical. The following applies: D3 peptide 1 μM, preliminary results. As to the method:
(§1) Kinase assays were performed using the ProfilerPro kinase panel kit available from NovaScreen and were validated using the KinaseProfiler enzyme panel available from Millipore.

For data set [3] the test system is unchanged. Kind of data set: Millipore KinaseProfiler enzyme panel. The data set is classed as biochemical. The following applies: D3 peptide 0.1 uM and 1 uM, same 12 kinases. As to the method: as §1
Data set [4] addresses kinases (Homo sapiens, UniProt P15056, V600E). Kind of data set: Invitrogen SelectScreen biochemical kinase profiling, Z'-LYTE assay. The following applies: kinase BRAF V599E. From the text: The Z′-LYTE® biochemical assay employs a fluorescence-based, coupled-enzyme format and is based on the differential sensitivity of phosphorylated and non-phosphorylated peptides to proteolytic cleavage. The peptide substrate is labeled with two fluorophores—one at each end—that make up a FRET pair. In the primary reaction, the kinase transfers the gamma-phosphate of ATP to a single tyrosine, serine or threonine residue in a synthetic FRET-peptide. In the secondary reaction, a site-specific protease recognizes and cleaves non-phosphorylated FRET-peptides. Phosphorylation of FRET-peptides suppresses cleavage by the Development Reagent. Cleavage disrupts FRET between the donor (i.e., coumarin) and acceptor (i.e., fluorescein) fluorophores on the FRET-peptide, whereas uncleaved, phosphorylated FRET-peptides maintain FRET.
Both cleaved and uncleaved FRET-peptides contribute to the fluorescence signals and therefore to the Emission Ratio. The extent of phosphorylation of the FRET-peptide can be calculated from the Emission Ratio.
Test Compounds are screened in 1% DMSO (final) in the well. […] All ATP Solutions are diluted to a 4× working concentration in Kinase Buffer (50 mM HEPES pH 7.5, 0.01% BRIJ-35, 10 mM MgCl2, 1 mM EGTA). ATP Km apparent is previously determined using a Z′-LYTE® assay.
This control yields 100% cleaved peptide in the Development Reaction. […]

The mark [5] stands for this setting: experiment 1, normal mouse chow, fresh vial of STZ.
The mark [6] stands for this setting: experiment 2, high carbohydrate diet.

Chain of kinases (P15056 whole entry V600E): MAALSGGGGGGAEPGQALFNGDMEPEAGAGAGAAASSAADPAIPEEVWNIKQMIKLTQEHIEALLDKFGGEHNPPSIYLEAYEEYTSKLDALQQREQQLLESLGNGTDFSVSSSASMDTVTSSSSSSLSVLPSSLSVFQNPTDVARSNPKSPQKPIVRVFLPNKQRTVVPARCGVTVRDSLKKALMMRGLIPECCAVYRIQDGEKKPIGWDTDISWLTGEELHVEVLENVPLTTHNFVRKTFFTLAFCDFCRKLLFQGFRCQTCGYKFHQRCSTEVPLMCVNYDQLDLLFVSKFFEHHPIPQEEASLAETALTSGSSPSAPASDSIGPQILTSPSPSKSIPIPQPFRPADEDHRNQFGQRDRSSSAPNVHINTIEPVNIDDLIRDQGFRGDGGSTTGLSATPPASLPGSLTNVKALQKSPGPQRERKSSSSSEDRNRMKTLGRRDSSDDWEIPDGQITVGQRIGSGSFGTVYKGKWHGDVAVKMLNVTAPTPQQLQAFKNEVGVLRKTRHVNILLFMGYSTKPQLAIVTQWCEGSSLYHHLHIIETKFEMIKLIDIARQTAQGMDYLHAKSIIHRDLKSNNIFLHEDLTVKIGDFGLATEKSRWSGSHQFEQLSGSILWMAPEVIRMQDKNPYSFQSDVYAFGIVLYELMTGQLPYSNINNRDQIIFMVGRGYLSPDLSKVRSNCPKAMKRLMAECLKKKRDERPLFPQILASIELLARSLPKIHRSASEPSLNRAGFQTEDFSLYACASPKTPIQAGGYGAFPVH

Regarding “SGRPPMIVWFNRPFLIAVSHTHGQTILFMAKVINPVGA [D3 peptide, SGRPPMIVWFNRPFLIAVSHTHGQTILFMAKVINPVGA]”, the “reduction of peak BG levels” value in data set [1] (36-day prophylactic study, STZ-induced male C57BL/6 mice, 1 mg/kg every 3 days, p<0.01) turned out to be 40%. Also, the “delay of the onset of Diabetes (mean blood glucose levels≧300 mg/dL)” value in data set [1] (36-day prophylactic study, STZ-induced male C57BL/6 mice, 1 mg/kg of D3 peptide every 3 days) is recorded as “approximately 14 days”. In addition, the “time to onset or rate of disease compared to untreated diabetic controls” value in data set [1] (FIG. 14, STZ treated animals (experiment 1)) is on record as “No significant differences”. In data set [1] (setting [5]), the “blood glucose levels, D3 treated versus untreated STZ-induced animals” value is given as “No difference”; the “first signs of Diabetes (blood glucose ≧300 mg/dl), day post STZ administration” value came out at 4 days; the “rate of disease progression (slope of the graph) versus untreated STZ group” value was “essentially similar”; the “time to establish Diabetes in 100% of animals” value was 15 days. The “mortality / survival during the course of the study” value in data set [1] is on record as “increases survival”. The “mortality / survival during the course of the study” value in data set [1] (listed as D3) was “no mortality was observed”. In data set [1] (setting [6]), the “animals classified as diabetic by day 36” value was found to be 70%, the “deaths from diabetic complications or toxic events related to peptide or STZ treatment” value is recorded as “No animals succumbed to diabetic complications or experienced any toxic events”, the “delay of first signs of diabetes versus untreated animals” value is on record as “four” and the “rate of disease progression (slope of the graph)” value was “much less pronounced”. In addition, the “mean blood glucose levels, D3 treated versus untreated STZ-induced animals” value in data set [1] (experiment 2, high carbohydrate diet (~50% sucrose), older stock vial of STZ, 36 days, FIG. 16) is “higher than those observed in diabetic animals treated with D3 peptide; also recorded: marked reduction”. Also, in data set [1] (experiment 2, high carbohydrate diet, D3 peptide every 3 days), the “day on which significant differences (p≦0.05) in mean blood glucose versus untreated diabetic animals were first observed” value amounted to 10 days. Also, the “inhibition of kinases of the panel” value in data set [2] was “specific inhibition activities to 7 kinases”. Moreover, the “inhibition of kinases of the panel (confirmation)” value in data set [3] is “specific inhibition activity on 4 out of 7 kinases”. For the same sequence, the “% Inhibition mean” value in data set [4] stood at 99.79%.
